The values that follow come from ChEMBL document CHEMBL1158504, “Cell permeability of Py-Im-polyamide-fluorescein conjugates: Influence of molecular size and Py/Im content” (Bioorg Med Chem, 2010).

Common to all, as to format: ADME, cell-based
Data set [1] relates to MCF7. The data set is described as follows: Cellular uptake in human MCF7 cells assessed as labeled cells at 1 uM after 24 hrs by flow cytometry. Conditions: mcf7, 24 h; call rule not given here. In general terms: In flow cytometry, cells or beads pass a laser one at a time.
The test system of data set [2] is HEK293. The data set is described as follows: Cellular uptake in HEK293 cells assessed as labeled cells at 1 uM after 24 hrs by flow cytometry. Conditions: human, hek293, 24 h.
Data set [3] concerns MCF7. The data set is described as follows: Cellular uptake in human MCF7 cells assessed as increase in labeled cells at 1 uM after 24 hrs by flow cytometry. The following applies: mcf7, 24 h.
The test system of data set [4] is HEK293. The experiment in a line: Cellular uptake in HEK293 cells assessed as localization to nucleus at 1 uM after 24 hrs by fluorescence microscopy. Conditions: human, hek293, 24 h.
For data set [5], the system named is HEK293. The data set is described as follows: Cellular uptake in HEK293 cells assessed as localization to cytoplasm at 1 uM after 24 hrs by fluorescence microscopy. Conditions: human, hek293, 24 h.
In data set [6] the test system is HEK293. The data set is described as follows: Cellular uptake in HEK293 cells assessed as intracellular localization at 1 uM after 24 hrs by fluorescence microscopy. Conditions: human, hek293, 24 h.

With `CN(C)CCCNC(=O)c1cc(NC(=O)c2cc(NC(=O)c3cc(NC(=O)CCCNC(=O)c4cc(NC(=O)c5cc(NC(=O)c6cc(NC(=O)CCNC(=S)Nc7ccc(-c8c9ccc(=O)cc-9oc9cc(O)ccc89)c(C(=O)O)c7)cn6C)cn5C)cn4C)cn3C)cn2C)cn1C`, the Drug uptake with MCF7 [1] is greater than 90%.

As to `CN(C)CCCNC(=O)c1nc(NC(=O)c2nc(NC(=O)c3nc(NC(=O)CCNc4nc(NC(=O)c5nc(NC(=O)c6nc(NC(=O)CCNc7nc(NC(=O)c8nc(NC(=O)c9nc(NC(=O)CCNc%10nc(NC(=O)c%11nc(NC(=O)c%12nc(NC(=O)CCNC(=S)Nc%13ccc(-c%14c%15ccc(=O)cc-%15oc%15cc(O)ccc%14%15)c(C(=O)O)c%13)cn%12C)cn%11C)cn%10C)cn9C)cn8C)cn7C)cn6C)cn5C)cn4C)cn3C)cn2C)cn1C`, the Drug uptake in the data set on HEK293 [2] came out at 1.1%.

Consider `CN(C)CCCNC(=O)c1cc(NC(=O)c2cc(NC(=O)c3cc(NC(=O)CCNc4cc(NC(=O)c5cc(NC(=O)c6cc(NC(=O)CCNC(=S)Nc7ccc(-c8c9ccc(=O)cc-9oc9cc(O)ccc89)c(C(=O)O)c7)cn6C)cn5C)cn4C)cn3C)cn2C)cn1C`, for which the values for the Drug uptake result in the data set on MCF7 [3], in the data set on HEK293 [2] and in the data set with HEK293 [4] were “Active”, greater than 82% and “Active”, respectively.

Turning to `CN(C)CCCNC(=O)c1nc(NC(=O)c2nc(NC(=O)c3nc(NC(=O)CCNc4nc(NC(=O)c5nc(NC(=O)c6nc(NC(=O)CCNc7nc(NC(=O)c8nc(NC(=O)c9nc(NC(=O)CCNC(=S)Nc%10ccc(-c%11c%12ccc(=O)cc-%12oc%12cc(O)ccc%11%12)c(C(=O)O)c%10)cn9C)cn8C)cn7C)cn6C)cn5C)cn4C)cn3C)cn2C)cn1C`, in the data set with HEK293 [2], the Drug uptake was determined as 3%.

Turning to `CN(C)CCCNC(=O)c1nc(NC(=O)c2nc(NC(=O)c3nc(NC(=O)CCNc4nc(NC(=O)c5nc(NC(=O)c6nc(NC(=O)CCNC(=S)Nc7ccc(-c8c9ccc(=O)cc-9oc9cc(O)ccc89)c(C(=O)O)c7)cn6C)cn5C)cn4C)cn3C)cn2C)cn1C`, the Drug uptake result is reported as “Not Active” with MCF7 [3], 39% in the data set on HEK293 [2] and “Not Active” in the data set with HEK293 [4].

For the molecule `CN(C)CCCNC(=O)c1cc(NC(=O)c2cc(NC(=O)c3cc(NC(=O)CCNc4cc(NC(=O)c5cc(NC(=O)c6cc(NC(=O)CCNc7cc(NC(=O)c8cc(NC(=O)c9cc(NC(=O)CCNc%10cc(NC(=O)c%11cc(NC(=O)c%12cc(NC(=O)CCNC(=S)Nc%13ccc(-c%14c%15ccc(=O)cc-%15oc%15cc(O)ccc%14%15)c(C(=O)O)c%13)cn%12C)cn%11C)cn%10C)cn9C)cn8C)cn7C)cn6C)cn5C)cn4C)cn3C)cn2C)cn1C`, in the data set with HEK293 [2], the Drug uptake was greater than 82%.

Consider `CN(C)CCCNC(=O)c1cc(NC(=O)c2cc(NC(=O)c3cc(NC(=O)CCNC(=S)Nc4ccc(-c5c6ccc(=O)cc-6oc6cc(O)ccc56)c(C(=O)O)c4)cn3C)cn2C)cn1C`, for which the Drug uptake with HEK293 [2] is given as 53%.

As for `CN(C)CCCNC(=O)c1cc(NC(=O)c2cc(NC(=O)c3cc(NC(=O)CCNc4cc(NC(=O)c5cc(NC(=O)c6cc(NC(=O)CCNc7cc(NC(=O)c8cc(NC(=O)c9cc(NC(=O)CCNC(=S)Nc%10ccc(-c%11c%12ccc(=O)cc-%12oc%12cc(O)ccc%11%12)c(C(=O)O)c%10)cn9C)cn8C)cn7C)cn6C)cn5C)cn4C)cn3C)cn2C)cn1C`, the Drug uptake was greater than 82% with HEK293 [2] and “Active” in the data set with HEK293 [4].

For `CN(C)CCCNC(=O)c1cc(NC(=O)c2cc(NC(=O)c3cc(NC(=O)CCNc4cc(NC(=O)c5cc(NC(=O)c6cc(NC(=O)CCNc7cc(NC(=O)c8cc(NC(=O)c9cc(NC(=O)CCNc%10cc(NC(=O)c%11cc(NC(=O)c%12cc(NC(=O)CCNc%13cc(NC(=O)c%14cc(NC(=O)c%15cc(NC(=O)CCNc%16cc(NC(=O)c%17cc(NC(=O)c%18cc(NC(=O)CCNC(=S)Nc%19ccc(-c%20c%21ccc(=O)cc-%21oc%21cc(O)ccc%20%21)c(C(=O)O)c%19)cn%18C)cn%17C)cn%16C)cn%15C)cn%14C)cn%13C)cn%12C)cn%11C)cn%10C)cn9C)cn8C)cn7C)cn6C)cn5C)cn4C)cn3C)cn2C)cn1C`, the results for the Drug uptake entry in the data set on HEK293 [5], in the data set with HEK293 [2] and with HEK293 [6] were “Active”, greater than 82% and “Active”, respectively.

Regarding `CN(C)CCCNC(=O)c1cc(NC(=O)c2cc(NC(=O)c3cc(NC(=O)CCNc4cc(NC(=O)c5cc(NC(=O)c6cc(NC(=O)CCNc7cc(NC(=O)c8cc(NC(=O)c9cc(NC(=O)CCNc%10cc(NC(=O)c%11cc(NC(=O)c%12cc(NC(=O)CCNc%13cc(NC(=O)c%14cc(NC(=O)c%15cc(NC(=O)CCNC(=S)Nc%16ccc(-c%17c%18ccc(=O)cc-%18oc%18cc(O)ccc%17%18)c(C(=O)O)c%16)cn%15C)cn%14C)cn%13C)cn%12C)cn%11C)cn%10C)cn9C)cn8C)cn7C)cn6C)cn5C)cn4C)cn3C)cn2C)cn1C`, the Drug uptake entry in the data set with HEK293 [5] was “Active”; with HEK293 [2] it was greater than 82%.

On to `CN(C)CCCNC(=O)c1nc(NC(=O)c2nc(NC(=O)c3nc(NC(=O)CCNC(=S)Nc4ccc(-c5c6ccc(=O)cc-6oc6cc(O)ccc56)c(C(=O)O)c4)cn3C)cn2C)cn1C`, for which, in the data set with HEK293 [2], the Drug uptake is listed as 53%.
